According to US20250215029A1 (Recludix Pharma, Inc., priority 2022, published 2025):
pIC50: −log10 of the molar value. Read-outs that look alike come from different tables or passages of the source.

What was measured:
[1] = target: T1, pY705-STAT3 in PBMC (Homo sapiens, UniProt P40763); experiment: MSD-pSTAT-PBMC Assay (pSTAT3, IL-6 stimulated); assay type: cell-based; settings: PBMC, compound 3 hrs, then 10 ng/mL IL-6 for 10 min
T1 construct: Cryopreserved Peripheral Blood Mononuclear Cells (PBMC) are from AllCells; host or cells: cryopreserved PBMC
T1 sequence (P40763 whole entry): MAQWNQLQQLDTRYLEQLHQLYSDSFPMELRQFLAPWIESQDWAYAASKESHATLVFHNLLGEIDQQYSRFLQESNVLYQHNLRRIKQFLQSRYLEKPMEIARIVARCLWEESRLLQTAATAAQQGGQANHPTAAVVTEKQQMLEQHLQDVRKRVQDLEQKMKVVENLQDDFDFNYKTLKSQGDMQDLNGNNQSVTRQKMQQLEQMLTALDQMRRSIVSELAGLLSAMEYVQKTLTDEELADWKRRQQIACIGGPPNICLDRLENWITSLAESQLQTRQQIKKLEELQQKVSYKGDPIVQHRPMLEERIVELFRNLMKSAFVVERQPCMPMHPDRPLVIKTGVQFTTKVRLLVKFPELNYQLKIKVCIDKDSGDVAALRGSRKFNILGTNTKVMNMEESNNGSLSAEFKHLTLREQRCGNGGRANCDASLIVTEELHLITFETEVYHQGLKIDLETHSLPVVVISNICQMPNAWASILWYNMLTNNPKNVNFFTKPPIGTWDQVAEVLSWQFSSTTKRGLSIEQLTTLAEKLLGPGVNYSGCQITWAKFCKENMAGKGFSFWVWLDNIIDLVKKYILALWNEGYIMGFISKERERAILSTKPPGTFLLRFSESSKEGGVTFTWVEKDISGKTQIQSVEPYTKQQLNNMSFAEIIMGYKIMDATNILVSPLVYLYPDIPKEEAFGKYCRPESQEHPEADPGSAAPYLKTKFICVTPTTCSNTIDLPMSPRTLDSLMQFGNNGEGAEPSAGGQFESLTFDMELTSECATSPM
In short: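 Cells are preincubated with compound for 3 hrs, then stimulated for 10 min, IL-4 at 1 ng/mL driving STAT6 phosphorylation and IL-6 at 10 ng/mL driving STAT3. Phospho-STAT in lysates is quantified by MSD immunoassay, and IC50 is fitted after subtracting unstimulated wells.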

[2] = target: T2, pY641-STAT6 in PBMC (Homo sapiens, UniProt P42226); experiment: MSD-pSTAT-PBMC Assay (pSTAT6, IL-4 stimulated); assay type: cell-based; settings: compound 3 hrs, then 1 ng/mL IL-4 for 10 min
T2 construct: Cryopreserved Peripheral Blood Mononuclear Cells (PBMC) are from AllCells; host or cells: cryopreserved PBMC
T2 sequence (P42226 1-847): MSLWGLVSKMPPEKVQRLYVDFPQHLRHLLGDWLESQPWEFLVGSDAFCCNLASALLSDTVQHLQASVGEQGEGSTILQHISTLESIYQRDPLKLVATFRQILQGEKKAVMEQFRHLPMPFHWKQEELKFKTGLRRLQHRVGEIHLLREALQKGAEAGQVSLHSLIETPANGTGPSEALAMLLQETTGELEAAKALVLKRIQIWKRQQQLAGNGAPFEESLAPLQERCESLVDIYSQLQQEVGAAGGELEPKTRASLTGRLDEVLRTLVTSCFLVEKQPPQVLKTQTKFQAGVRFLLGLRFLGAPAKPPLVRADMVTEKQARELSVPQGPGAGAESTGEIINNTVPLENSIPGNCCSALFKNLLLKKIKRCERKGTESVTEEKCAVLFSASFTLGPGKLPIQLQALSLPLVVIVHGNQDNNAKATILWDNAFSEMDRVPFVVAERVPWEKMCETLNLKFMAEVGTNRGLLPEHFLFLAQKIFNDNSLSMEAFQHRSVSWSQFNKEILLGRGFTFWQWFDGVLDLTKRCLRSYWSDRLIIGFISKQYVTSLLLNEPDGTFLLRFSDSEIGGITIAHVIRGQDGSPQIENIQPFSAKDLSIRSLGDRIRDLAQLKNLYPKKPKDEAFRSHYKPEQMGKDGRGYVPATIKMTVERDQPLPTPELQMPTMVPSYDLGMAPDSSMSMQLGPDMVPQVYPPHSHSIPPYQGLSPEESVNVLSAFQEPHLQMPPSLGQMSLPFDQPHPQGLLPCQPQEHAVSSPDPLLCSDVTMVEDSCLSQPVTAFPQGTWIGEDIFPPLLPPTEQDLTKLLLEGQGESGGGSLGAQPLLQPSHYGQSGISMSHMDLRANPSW
In short: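 PBMC (human, cryopreserved, overnight recovery) + cpd 3 hrs → IL-6 10 ng/mL (STAT3) or IL-4 1 ng/mL (STAT6) ×10 min → lysis with protease/phosphatase inhibitors → MSD capture/phospho detection. IC50, variable slope, DMSO-normalized.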

[3] = PBMC, Table 115, read-out: STAT6
[4] = PBMC, Table 1114, read-out: pSTAT6

Compound	pIC50 ([1]; Table 115, read-out: STAT3)	pIC50 [2, 3]	pIC50 ([2]; STAT6, PBMC, Table 115)	pIC50 ([1]; Table 1114, read-out: pSTAT3)	pIC50 [2, 4]
CC(C)(C)C(=O)SCCOP(=O)(OCCSC(=O)C(C)(C)C)C(F)c1ccc2sc(C(=O)N[C@H]3CCC[C@H]4CC[C@@H](C(=O)N5CC(c6cnccc6F)C5)N4C3=O)cc2c1 (stereo partly drawn) [Compound 984, S,S′-((((fluoro(2-(((3S,6S,9aS)-3-(3-(4-fluoropyridin-3-yl)azetidine-1-carbonyl)-5-oxooctahydro-1H-pyrrolo[1,2-a]azepin-6-yl)carbamoyl)benzo [b]thiophen-5-yl)methyl)phosphoryl)bis(oxy))bis(ethane-2,1-diyl))bis(2,2-dimethyl-propanethioate)]	> 7.00	< 5.52	–	–	–
CC(C)CC(=O)SCCOP(=O)(Oc1cccc(C#N)c1)C(F)(F)c1ccc2sc(C(=O)N[C@H]3CCC[C@H]4CC[C@@H](C(=O)N5CC(c6cccnc6)C5)N4C3=O)cc2c1 (stereo partly drawn) [Compound 1008, S-(2-(((3-cyanophenoxy) (difluoro(2-(((3S,6S,9aS)-5-oxo-3-(3-(pyridin-3-yl)azetidine-1-carbonyl)octahydro-1H-pyrrolo[1,2-a]azepin-6-yl)carbamoyl)benzo [b]thiophen-5-yl)methyl)phosphoryl)oxy)ethyl) 3-methylbutanethioate]	6.00 to 7.00	–	< 5.52	–	–
CC(C)C(=O)SCCOP(=O)(OCCSC(=O)C(C)C)C(F)(F)c1ccc2sc(C(=O)N[C@H]3CCC[C@H]4CC[C@@H](C(=O)N5CC(c6cccnc6)C5)N4C3=O)cc2c1 [Compound 1009, S,S′-((((difluoro(2-(((3S,6S,9aS)-5-oxo-3-(3-(pyridin-3-yl)azetidine-1-carbonyl)octahydro-1H-pyrrolo[1,2-a]azepin-6-yl)carbamoyl)benzo [b]thiophen-5-yl)methyl)phosphoryl)bis(oxy))bis(ethane-2,1-diyl)) bis(2-methyl-propanethioate)]	> 7.00	6.00 to 7.00	–	–	–
COCC(=O)SCCOP(=O)(OCCSC(=O)COC)C(F)(F)c1ccc2sc(C(=O)N[C@H]3CCC[C@H]4CC[C@@H](C(=O)N5CC(c6cccnc6)C5)N4C3=O)cc2c1 [Compound 1011, S,S′-((((difluoro(2-(((3S,6S,9aS)-5-oxo-3-(3-(pyridin-3-yl)azetidine-1-carbonyl)octahydro-1H-pyrrolo[1,2-a]azepin-6-yl)carbamoyl)benzo [b]thiophen-5-yl)methyl)phosphoryl)bis(oxy))bis(ethane-2,1-diyl)) bis(2-methoxyethanethioate)]	> 7.00	6.00 to 7.00	–	–	–
CC(C)(C)C(=O)SCCOP(=O)(OCCSC(=O)C(C)(C)C)C(F)(F)c1ccc2sc(C(=O)N[C@H]3CCC[C@H]4CC[C@@H](C(=O)N5CC(CS(C)(=O)=O)C5)N4C3=O)cc2c1 [Compound 1014, S,S′-((((difluoro(2-(((3S,6S,9aS)-3-(3-((methylsulfonyl)methyl)azetidine-1-carbonyl)-5-oxooctahydro-1H-pyrrolo[1,2-a]azepin-6-yl)carbamoyl)benzo [b]thiophen-5-yl)methyl)phosphoryl)bis(oxy))bis(ethane-2,1-diyl)) bis(2,2-dimethyl-propanethioate)]	> 7.00	6.00 to 7.00	–	–	–
CC(C)CC(=O)SCCOP(=O)(OCCSC(=O)CC(C)C)C(F)(F)c1ccc2sc(C(=O)N[C@H]3CCCC[C@H]4CC[C@@H](C(=O)N5CC(c6ccccc6)CC56CC6)N4C3=O)cc2c1 (stereo partly drawn) [Compound 1082, S,S′-((((difluoro(2-(((3S,6S,10aS)-5-oxo-3-(6-phenyl-4-azaspiro[2.4]heptane-4-carbonyl)decahydropyrrolo[1,2-a]azocin-6-yl)carbamoyl)benzo [b]thiophen-5-yl)methyl)phosphoryl)bis(oxy))bis(ethane-2,1-diyl)) bis(3-methylbutanethioate)]	< 5.52	6.00 to 7.00	–	–	–
CC(C)CC(=O)SCCOP(=O)(OCCSC(=O)CC(C)C)[C@@H](F)c1ccc2sc(C(=O)N[C@H]3CCC[C@H]4CC[C@@H](C(=O)N5CC(c6cccnc6)C5)N4C3=O)cc2c1 [Compound 1089, S,S′-(((((R)-fluoro(2-(((3S,6S,9aS)-5-oxo-3-(3-(pyridin-3-yl)azetidine-1-carbonyl)octahydro-1H-pyrrolo[1,2-a]azepin-6-yl)carbamoyl)benzo [b]thiophen-5-yl)methyl)phosphoryl)bis(oxy))bis(ethane-2,1-diyl)) bis(3-methylbutanethioate]	> 7.00	6.00 to 7.00	–	–	–
CC(C)CC(=O)SCCOP(=O)(OCCSC(=O)CC(C)C)C(F)(F)c1ccc2ccc(C(=O)N[C@H]3CCCC[C@H]4CC[C@@H](C(=O)N5CC(c6cc[nH]c(=O)c6)CC56CC6)N4C3=O)cc2c1 (stereo partly drawn) [Compound 1092, S,S′-((((difluoro(7-(((3S,6S,10aS)-5-oxo-3-(6-(2-oxo-1,2-dihydropyridin-4-yl)-4-azaspiro[2.4]heptane-4-carbonyl)decahydropyrrolo[1,2-a]azocin-6-yl)carbamoyl)naphthalen-2-yl)methyl)phosphoryl)bis(oxy))bis(ethane-2,1-diyl)) bis(3-methylbutanethioate)]	6.00 to 7.00	> 7.00	–	–	–
CC(C)CC(=O)SCCOP(=O)(OCCSC(=O)CC(C)C)C(F)(F)c1ccc2ccc(C(=O)N[C@H]3CCCC[C@H]4CC[C@@H](C(=O)N5CC(c6ccccc6)CC56CC6)N4C3=O)cc2c1 (stereo partly drawn) [Compound 1101, S,S′-((((difluoro(7-(((3S,6S,10aS)-5-oxo-3-(6-phenyl-4-azaspiro[2.4]heptane-4-carbonyl)decahydropyrrolo[1,2-a]azocin-6-yl)carbamoyl)naphthalen-2-yl)methyl)phosphoryl)bis(oxy))bis(ethane-2,1-diyl)) bis(3-methylbutanethioate)]	< 5.52	> 7.00	–	–	–
COCCC(=O)SCCOP(=O)(OCCSC(=O)CCOC)C(F)(F)c1ccc2sc(C(=O)N[C@H]3CCC[C@H]4CC[C@@H](C(=O)N5CC(c6cccnc6)C5)N4C3=O)cc2c1 [Compound 1106, S,S′-((((difluoro(2-(((3S,6S,9aS)-5-oxo-3-(3-(pyridin-3-yl)azetidine-1-carbonyl)octahydro-1H-pyrrolo[1,2-a]azepin-6-yl)carbamoyl)benzo [b]thiophen-5-yl)methyl)phosphoryl)bis(oxy))bis(ethane-2,1-diyl)) bis(3-methoxy-propanethioate)]	> 7.00	6.00 to 7.00	–	–	–
S,S′- ((((difluoro(2- (((3S,6S,9aS)-5-oxo-3- (3-(pyridin-3- yl)azetidine-1- carbonyl)octahydro- 1H-pyrrolo[1,2-a] azepin-6-yl) carbamoyl)benzo[b] thiophen-5-yl)methyl) phosphoryl)bis(oxy)) bis(ethane-2,1-diyl)) bis(2,2- dimethylpropanethioate) [Compound 175]	–	–	–	> 7.00	6.00 to 7.00
S-(2- (((difluoro(2- (((3S,6S,9aS)-3-(3-((S- methylsulfonimidoyl) methyl)azetidine-1- carbonyl)-5- oxooctahydro-1H- pyrrolo[1,2-a]azepin-6- yl)carbamoyl)benzo[b] thiophen-5-yl)methyl) (((3-methylbutanoyl) thio)methoxy) phosphoryl)oxy)ethyl) 3-methylbutane thioate [Compound 178]	–	–	–	6.00 to 7.00	< 5.52
S-(2-((((2- (((3S,6S,9aS)-3-(3-(3- cyanophenyl) azetidine-1-carbonyl)-5- oxooctahydro-1H- pyrrolo[1,2-a]azepin-6- yl)carbamoyl)benzo[b] thiophen-5-yl) difluoromethyl)(((3- methylbutanoyl)thio) methoxy)phosphoryl) oxy)ethyl) 3- methylbutane thioate [Compound 176]	–	–	–	> 7.00	5.52 to 6.00
S-(2-((((2- (((3S,6S,10aS)-3- ((3S,4R or 3R,4S)-3- cyano-4- phenylpyrrolidine-1- carbonyl)-5- oxodecahydro- pyrrolo[1,2-a] azocin-6- yl)carbamoyl) benzo[b]thiophen- 5-yl)difluoromethyl) (2-(pivaloylthio) ethoxy)phosphoryl) oxy)ethyl) butanethioate [Compound 165]	–	–	–	5.52 to 6.00	6.00 to 7.00
